# Reference: the NIST ThermoML archive (doi:10.1021/je060271a)
# ± gives the expanded uncertainty stated by the source.
# Details: 303.15 K, Liquid, Vibrating tube method
smiles,measurement,setting,value
CCCCCC(=O)OCC(COC(=O)CCCCC)(COC(=O)CCCCC)COC(=O)CCCCC [pentaerythritol tetrahexanoate],mass density,5137.3 kPa,991.5 ± 1.2 kg/m3
same,mass density,5153 kPa,991.6 ± 1.2 kg/m3
same,mass density,5168.7 kPa,991.7 ± 1.2 kg/m3
same,mass density,5185 kPa,991.7 ± 1.2 kg/m3
same,mass density,5201.1 kPa,991.6 ± 1.2 kg/m3
same,mass density,5220.3 kPa,991.6 ± 1.2 kg/m3
same,mass density,5236.1 kPa,991.6 ± 1.2 kg/m3
same,mass density,5252.7 kPa,991.7 ± 1.2 kg/m3
same,mass density,5271.9 kPa,991.8 ± 1.2 kg/m3
same,mass density,5288.3 kPa,991.7 ± 1.2 kg/m3
same,mass density,5304.7 kPa,991.7 ± 1.2 kg/m3
same,mass density,5321.5 kPa,991.6 ± 1.2 kg/m3
same,mass density,5341.1 kPa,991.8 ± 1.2 kg/m3
same,mass density,5357.3 kPa,991.8 ± 1.2 kg/m3
same,mass density,5683.2 kPa,992 ± 1.2 kg/m3
same,mass density,5701.2 kPa,992 ± 1.2 kg/m3
same,mass density,5722.4 kPa,992 ± 1.2 kg/m3
same,mass density,5740.3 kPa,992 ± 1.2 kg/m3
same,mass density,5758.4 kPa,992.1 ± 1.2 kg/m3
same,mass density,5780 kPa,992.1 ± 1.2 kg/m3
same,mass density,5798.2 kPa,992 ± 1.2 kg/m3
same,mass density,5816.3 kPa,992.1 ± 1.2 kg/m3
same,mass density,5835 kPa,992.1 ± 1.2 kg/m3
same,mass density,5853.7 kPa,992.1 ± 1.2 kg/m3
same,mass density,5912.7 kPa,992.1 ± 1.2 kg/m3
same,mass density,6092.3 kPa,992.3 ± 1.2 kg/m3
same,mass density,6130.7 kPa,992.2 ± 1.2 kg/m3
same,mass density,6149.9 kPa,992.4 ± 1.2 kg/m3
same,mass density,6172.7 kPa,992.3 ± 1.2 kg/m3
same,mass density,6191.3 kPa,992.3 ± 1.2 kg/m3
same,mass density,6210.7 kPa,992.3 ± 1.2 kg/m3
same,mass density,6233.5 kPa,992.3 ± 1.2 kg/m3
same,mass density,6252.4 kPa,992.3 ± 1.2 kg/m3
same,mass density,6271.5 kPa,992.4 ± 1.2 kg/m3
same,mass density,6294.4 kPa,992.3 ± 1.2 kg/m3
same,mass density,6313.7 kPa,992.3 ± 1.2 kg/m3
same,mass density,6333.6 kPa,992.5 ± 1.2 kg/m3
same,mass density,6354.3 kPa,992.4 ± 1.2 kg/m3
same,mass density,6373.3 kPa,992.4 ± 1.2 kg/m3
same,mass density,6396.3 kPa,992.4 ± 1.2 kg/m3
same,mass density,6415.5 kPa,992.5 ± 1.2 kg/m3
same,mass density,6434.7 kPa,992.6 ± 1.2 kg/m3
same,mass density,6457.8 kPa,992.5 ± 1.2 kg/m3
same,mass density,6476.9 kPa,992.5 ± 1.2 kg/m3
same,mass density,6496.6 kPa,992.5 ± 1.2 kg/m3
same,mass density,6516.3 kPa,992.5 ± 1.2 kg/m3
same,mass density,6539.1 kPa,992.5 ± 1.2 kg/m3
same,mass density,6558.1 kPa,992.5 ± 1.2 kg/m3
same,mass density,6581.1 kPa,992.6 ± 1.2 kg/m3
same,mass density,6600.9 kPa,992.6 ± 1.2 kg/m3
same,mass density,6621.4 kPa,992.5 ± 1.2 kg/m3
same,mass density,6640.4 kPa,992.6 ± 1.2 kg/m3
same,mass density,6659.3 kPa,992.6 ± 1.2 kg/m3
same,mass density,6681.6 kPa,992.6 ± 1.2 kg/m3
same,mass density,6699.9 kPa,992.6 ± 1.2 kg/m3
same,mass density,6718.5 kPa,992.7 ± 1.2 kg/m3
same,mass density,6740.3 kPa,992.7 ± 1.2 kg/m3
same,mass density,6758.3 kPa,992.6 ± 1.2 kg/m3
same,mass density,6776.2 kPa,992.7 ± 1.2 kg/m3
same,mass density,6797.8 kPa,992.7 ± 1.2 kg/m3
same,mass density,6815.4 kPa,992.7 ± 1.2 kg/m3
same,mass density,6833.2 kPa,992.7 ± 1.2 kg/m3
same,mass density,6854.1 kPa,992.7 ± 1.2 kg/m3
same,mass density,6871.8 kPa,992.8 ± 1.2 kg/m3
same,mass density,6889.4 kPa,992.6 ± 1.2 kg/m3
same,mass density,6907.3 kPa,992.8 ± 1.2 kg/m3
same,mass density,6924.8 kPa,992.7 ± 1.2 kg/m3
same,mass density,6946.2 kPa,992.8 ± 1.2 kg/m3
same,mass density,6963.8 kPa,992.8 ± 1.2 kg/m3
same,mass density,6981.6 kPa,992.8 ± 1.2 kg/m3
same,mass density,6999.8 kPa,992.8 ± 1.2 kg/m3
same,mass density,7021.5 kPa,992.9 ± 1.2 kg/m3
same,mass density,7039.5 kPa,992.8 ± 1.2 kg/m3
same,mass density,7057.3 kPa,992.9 ± 1.2 kg/m3
same,mass density,7079.2 kPa,992.9 ± 1.2 kg/m3
same,mass density,7097.5 kPa,992.8 ± 1.2 kg/m3
same,mass density,7116 kPa,992.9 ± 1.2 kg/m3
same,mass density,7134.1 kPa,992.9 ± 1.2 kg/m3
same,mass density,7155.9 kPa,992.9 ± 1.2 kg/m3
same,mass density,7174.4 kPa,992.9 ± 1.2 kg/m3
same,mass density,7192.5 kPa,993 ± 1.2 kg/m3
same,mass density,7214.4 kPa,993 ± 1.2 kg/m3
same,mass density,7232.7 kPa,993 ± 1.2 kg/m3
same,mass density,7251.4 kPa,992.9 ± 1.2 kg/m3
same,mass density,7273.7 kPa,993 ± 1.2 kg/m3
same,mass density,7292.3 kPa,993 ± 1.2 kg/m3
same,mass density,7310.6 kPa,993 ± 1.2 kg/m3
same,mass density,7333.2 kPa,993 ± 1.2 kg/m3
same,mass density,7352.4 kPa,993 ± 1.2 kg/m3
same,mass density,7371.4 kPa,993.1 ± 1.2 kg/m3
same,mass density,7394.2 kPa,993.1 ± 1.2 kg/m3
same,mass density,7413.2 kPa,993 ± 1.2 kg/m3
same,mass density,7432.5 kPa,993.1 ± 1.2 kg/m3
same,mass density,7451.7 kPa,993.1 ± 1.2 kg/m3
same,mass density,7474.8 kPa,993.1 ± 1.2 kg/m3
same,mass density,7494.2 kPa,993.1 ± 1.2 kg/m3
same,mass density,7513.5 kPa,993.1 ± 1.2 kg/m3
same,mass density,7533.2 kPa,993.2 ± 1.2 kg/m3
same,mass density,7556.5 kPa,993.2 ± 1.2 kg/m3
same,mass density,7576.2 kPa,993.2 ± 1.2 kg/m3
same,mass density,7596.7 kPa,993.2 ± 1.2 kg/m3
same,mass density,7616.7 kPa,993.2 ± 1.2 kg/m3
same,mass density,7640.5 kPa,993.3 ± 1.2 kg/m3
same,mass density,7660.7 kPa,993.2 ± 1.2 kg/m3
same,mass density,7680.6 kPa,993.3 ± 1.2 kg/m3
same,mass density,7700.8 kPa,993.4 ± 1.2 kg/m3
same,mass density,7724.8 kPa,993.2 ± 1.2 kg/m3
same,mass density,7744.8 kPa,993.2 ± 1.2 kg/m3
same,mass density,7765.4 kPa,993.3 ± 1.2 kg/m3
same,mass density,7785.7 kPa,993.3 ± 1.2 kg/m3
same,mass density,7809.9 kPa,993.4 ± 1.2 kg/m3
same,mass density,7830.6 kPa,993.4 ± 1.2 kg/m3
same,mass density,7851.3 kPa,993.3 ± 1.2 kg/m3
same,mass density,7876.2 kPa,993.3 ± 1.2 kg/m3
same,mass density,7897.2 kPa,993.3 ± 1.2 kg/m3
same,mass density,7917.7 kPa,993.4 ± 1.2 kg/m3
same,mass density,7938.5 kPa,993.5 ± 1.2 kg/m3
same,mass density,7963.1 kPa,993.4 ± 1.2 kg/m3
same,mass density,7984.2 kPa,993.4 ± 1.2 kg/m3
same,mass density,8005.2 kPa,993.6 ± 1.2 kg/m3
same,mass density,8026.6 kPa,993.4 ± 1.2 kg/m3
same,mass density,8051.8 kPa,993.5 ± 1.2 kg/m3
same,mass density,8072.9 kPa,993.6 ± 1.2 kg/m3
same,mass density,8094.6 kPa,993.3 ± 1.2 kg/m3
same,mass density,8120 kPa,993.5 ± 1.2 kg/m3
same,mass density,8141.2 kPa,993.6 ± 1.2 kg/m3
same,mass density,8163.1 kPa,993.5 ± 1.2 kg/m3
same,mass density,8186 kPa,993.6 ± 1.2 kg/m3
same,mass density,8208.3 kPa,993.6 ± 1.2 kg/m3
same,mass density,8233.8 kPa,993.6 ± 1.2 kg/m3
same,mass density,8255.4 kPa,993.6 ± 1.2 kg/m3
same,mass density,8277.5 kPa,993.6 ± 1.2 kg/m3
same,mass density,8303.5 kPa,993.7 ± 1.2 kg/m3
same,mass density,8325.2 kPa,993.6 ± 1.2 kg/m3
same,mass density,8347.2 kPa,993.7 ± 1.2 kg/m3
same,mass density,8373.2 kPa,993.7 ± 1.2 kg/m3
same,mass density,8395.6 kPa,993.7 ± 1.2 kg/m3
same,mass density,8417.7 kPa,993.7 ± 1.2 kg/m3
same,mass density,8440.3 kPa,993.7 ± 1.2 kg/m3
same,mass density,8467.9 kPa,993.8 ± 1.2 kg/m3
same,mass density,8491.4 kPa,993.8 ± 1.2 kg/m3
same,mass density,8513.6 kPa,993.8 ± 1.2 kg/m3
same,mass density,8536.1 kPa,993.9 ± 1.2 kg/m3
same,mass density,8563.5 kPa,993.6 ± 1.2 kg/m3
